From paper PMC8319832, “Fine-Tuning of Alkaline Residues on the Hydrophilic Face Provides a Non-toxic Cationic α-Helical Antimicrobial Peptide Against Antibiotic-Resistant ESKAPE Pathogens” (Frontiers in Microbiology, 2021)
≈ marks a conversion by molar mass, not a printed value. Where a SMILES comes first, the peptide text is derived from it.

What was measured:
[1] = test system: K. pneumoniae ATCC 700603; experiment: MIC, broth dilution; format: cell-based, Klebsiella pneumoniae; conditions: CLSI broth dilution, MHB, 37°C, 20 h, OD630, at least three repeats; standard strain
Description: (§1) All experiments were repeated at least three times.
(§2) To study the influence of physiological ions on the antimicrobial activities of the peptides, The MICs of the peptides were also determined against the standard bacterial strains cultured in MHB containing various salts at their physiological concentrations (150 mM NaCl, 4.5 mM KCl, 1 mM MgCl2, 2 mM CaCl2, 6 μM NH4HCO3, and 4 μM FeCl3) ([Ma et al., 2016]).

[2] = test system: S. aureus ATCC 25923; experiment: MIC, broth dilution; format: cell-based, Staphylococcus aureus; conditions: CLSI broth dilution, MHB, 37°C, 20 h, OD630, at least three repeats; standard strain
Text: as §1

[3] = test system: S. aureus 9124; experiment: MIC, broth dilution; format: cell-based, Staphylococcus aureus; conditions: CLSI broth dilution, MHB, 37°C, 20 h, OD630, at least three repeats; clinical isolate, MRSA
Text: as §1

[4] = test system: S. aureus 4188; experiment: MIC, broth dilution; format: cell-based, Staphylococcus aureus; conditions: CLSI broth dilution, MHB, 37°C, 20 h, OD630, at least three repeats; clinical isolate, penicillin-resistant
Text: as §1

[5] = test system: S. aureus 1176; experiment: MIC, broth dilution; format: cell-based, Staphylococcus aureus; conditions: CLSI broth dilution, MHB, 37°C, 20 h, OD630, at least three repeats; clinical isolate
Text: as §1

[6] = test system: ESBL-producing E. coli, CRE- and MDR P. aeruginosa, CRE- and MDR A. baumannii; experiment: MIC, summary over resistant gram-negative strains; format: cell-based; conditions: summary of Table 4
Text: as §1

[7] = test system: E. coli ATCC25922; experiment: MIC, broth dilution; format: cell-based, Escherichia coli; conditions: CLSI broth dilution, MHB, 6.25 × 10^5 cfu per ml, 37°C, 20 h, OD630, at least three repeats
[8] = test system: E. faecium 898; experiment: MIC, broth dilution; format: cell-based, Enterococcus faecium; conditions: CLSI broth dilution, MHB, 37°C, 20 h, OD630, at least three repeats; clinical isolate
Text: as §1

[9] = test system: K. pneumoniae 9126; experiment: MIC, broth dilution; format: cell-based, Klebsiella pneumoniae; conditions: CLSI broth dilution, MHB, 37°C, 20 h, OD630, at least three repeats; clinical isolate, CRE
Text: as §1

[10] = test system: P. aeruginosa 9042; experiment: MIC, broth dilution; format: cell-based, Pseudomonas aeruginosa; conditions: CLSI broth dilution, MHB, 37°C, 20 h, OD630, at least three repeats; clinical isolate
Text: as §1

[11] = test system: P. aeruginosa 9014; experiment: MIC, broth dilution; format: cell-based, Pseudomonas aeruginosa; conditions: CLSI broth dilution, MHB, 37°C, 20 h, OD630, at least three repeats; clinical isolate, CRE, MDR
Text: as §1

[12] = test system: S. epidermidis 9092; experiment: MIC, broth dilution; format: cell-based; conditions: CLSI broth dilution, MHB, 37°C, 20 h, OD630, at least three repeats; clinical isolate, MRSE
Text: as §1

[13] = test system: S. epidermidis 888; experiment: MIC, broth dilution; format: cell-based; conditions: CLSI broth dilution, MHB, 37°C, 20 h, OD630, at least three repeats; clinical isolate
Text: as §1

[14] = test system: E. faecalis 901; experiment: MIC, broth dilution; format: cell-based; conditions: CLSI broth dilution, MHB, 37°C, 20 h, OD630, at least three repeats; clinical isolate
Text: as §1

[15] = test system: S. epidermidis 6943; experiment: MIC, broth dilution; format: cell-based; conditions: CLSI broth dilution, MHB, 37°C, 20 h, OD630, at least three repeats; clinical isolate, MRSE
Text: as §1

[16] = test system: A. baumannii ATCC 19606; experiment: MIC, broth dilution; format: cell-based, Acinetobacter baumannii; conditions: CLSI broth dilution, MHB, 37°C, 20 h, OD630, at least three repeats; standard strain
Description: as §1, §2

[17] = test system: A. baumannii 13012; experiment: MIC, broth dilution; format: cell-based, Acinetobacter baumannii; conditions: CLSI broth dilution, MHB, 37°C, 20 h, OD630, at least three repeats; clinical isolate, CRE, MDR
Text: as §1

[18] = test system: A. baumannii 906; experiment: MIC, broth dilution; format: cell-based, Acinetobacter baumannii; conditions: CLSI broth dilution, MHB, 37°C, 20 h, OD630, at least three repeats; clinical isolate, CRE, MDR
Text: as §1

[19] = test system: A. baumannii 9068; experiment: MIC, broth dilution; format: cell-based, Acinetobacter baumannii; conditions: CLSI broth dilution, MHB, 37°C, 20 h, OD630, at least three repeats; clinical isolate, CRE, MDR
Text: as §1

[20] = test system: A. baumannii 13079; experiment: MIC, broth dilution; format: cell-based, Acinetobacter baumannii; conditions: CLSI broth dilution, MHB, 37°C, 20 h, OD630, at least three repeats; clinical isolate, CRE, MDR
Text: as §1

[21] = test system: E. faecalis ATCC 29212; experiment: MIC, broth dilution; format: cell-based; conditions: CLSI broth dilution, MHB, 37°C, 20 h, OD630, at least three repeats; standard strain
Description: as §1, §2

[22] = test system: human red blood cells (hRBCs); experiment: Hemolytic activity determination; format: cell-based; conditions: hRBCs in 0.9% sodium chloride, 37°C, 1 h, OD540, 1% Triton X-100 = 100%, three independent experiments
Description: Fresh human red blood cells (hRBCs) were collected in a sterile borosilicate glass tube covered with sodium citrate as the anticoagulating agent. […] Two-fold dilutions of the peptides were prepared in 0.9% sodium chloride to 100 μl and mixed with equal volumn of hRBC suspension to final peptide concentrations ranging from 12.5 to 200 μg ml^–1. After co-incubation at 37°C for 1 h, the samples were centrifuged (2,000 × g, 4°C, 20 min), and the supernatant (100 μl) was taken for optical density (OD540) measurements (Asample). The hRBCs assayed with 0.9% sodium chloride (Ablank) or 1% Triton X-100 (Apositive) were applied as 0% and 100% hemolysis, respectively. Three independent experiments were performed and the percent hemolysis was calculated according to the following equation ([Yin et al., 2012]; [Li et al., 2016]):
Hemolysis(%)=100*(Asample-Ablank)/(Apositive-Ablank)

[23] = test system: S. aureus ATCC29213; experiment: MIC, broth dilution; format: cell-based, Staphylococcus aureus; conditions: CLSI broth dilution, MHB, 6.25 × 10^5 cfu per ml, 37°C, 20 h, OD630, at least three repeats
Description: as §1, §2

[24] = test system: E. coli 2678; experiment: MIC, broth dilution; format: cell-based, Escherichia coli; conditions: CLSI broth dilution, MHB, 37°C, 20 h, OD630, at least three repeats; clinical isolate, ESBL
Text: as §1

[25] = test system: E. coli 2687; experiment: MIC, broth dilution; format: cell-based, Escherichia coli; conditions: CLSI broth dilution, MHB, 37°C, 20 h, OD630, at least three repeats; clinical isolate, ESBL
Text: as §1

[26] = test system: E. coli ATCC35218; experiment: MIC, broth dilution; format: cell-based, Escherichia coli; conditions: CLSI broth dilution, MHB, 37°C, 20 h, OD630, at least three repeats; standard strain
Text: as §1

[27] = test system: P. aeruginosa ATCC 27853; experiment: MIC, broth dilution; format: cell-based, Pseudomonas aeruginosa; conditions: CLSI broth dilution, MHB, 37°C, 20 h, OD630, at least three repeats; standard strain
Description: as §1, §2

[28] = test system: A. baumannii; conditions: summary of Table 4
Description: The MIC determination was performed using the broth dilution method according to the guidelines of the Clinical and Laboratory Standards Institute (CLSI) ([Cao et al., 2012]; [Mourtada et al., 2019]). Briefly, the bacterial cells were incubated in Mueller-Hinton broth (MHB, Oxoid) at 37°C and 150 rpm, after overnight incubation, the bacteria were transferred to new broth until the exponential phase of growth (OD630 = 0.4). After that, the bacteria were diluted with fresh MHB to 160 μl and prepared in a sterile 96-well polypropylene plate to achieve a final concentration of 6.25 × 10^5 colony forming units (cfu) per ml. Two-fold dilutions of the peptides in 0.9% sodium chloride (40 μl) were added to each well to achieve the final peptide concentrations ranging from 1.25 to 80 μg ml^–1. […] All experiments were repeated at least three times.

Compound | MIC [1] | MIC [2] | MIC [3] | MIC [4] | MIC [5] | MIC [7] | MIC [8] | MIC [9] | MIC [10] | MIC [11] | MIC [12] | MIC [13] | MIC [14] | MIC [15] | MIC [16] | MIC [17] | MIC [18] | MIC [19] | MIC [20] | MIC [21] | other results
CC[C@H](C)[C@H](NC(=O)[C@H](CCCNC(=N)N)NC(=O)[C@H](CCCNC(=N)N)NC(=O)[C@@H](NC(=O)[C@@H](N)Cc1ccccc1)[C@@H](C)CC)C(=O)N[C@@H](C)C(=O)N[C@@H](CCCNC(=N)N)C(=O)N[C@@H](CC(C)C)C(=O)N[C@@H](CC(C)C)C(=O)N[C@@H](CCCNC(=N)N)C(=O)N[C@@H](CCCNC(=N)N)C(=O)N[C@H](C(=O)N[C@@H](Cc1ccccc1)C(N)=O)[C@@H](C)CC [BmKn2-7R] (H-FIRRIARLLRRIF-NH2) | 5 µg/mL (≈ 2.89 µM) | 5 µg/mL (≈ 2.89 µM) | 5 µg/mL (≈ 2.89 µM) | 5 µg/mL (≈ 2.89 µM) | 5 µg/mL (≈ 2.89 µM) | 10 µg/mL (≈ 5.78 µM) | 2.5 µg/mL (≈ 1.45 µM) | 5 µg/mL (≈ 2.89 µM) | 5 µg/mL (≈ 2.89 µM) | 2.5 µg/mL (≈ 1.45 µM) | 5 µg/mL (≈ 2.89 µM) | 2.5 µg/mL (≈ 1.45 µM) | 5 µg/mL (≈ 2.89 µM) | 5 µg/mL (≈ 2.89 µM) | 2.5 µg/mL (≈ 1.45 µM) | 2.5 µg/mL (≈ 1.45 µM) | 2.5 µg/mL (≈ 1.45 µM) | 5 µg/mL (≈ 2.89 µM) | 2.5 µg/mL (≈ 1.45 µM) | 10 µg/mL (≈ 5.78 µM) | MIC against ESBL E. coli, CRE/MDR P. aeruginosa, CRE/MDR A. baumannii [6]: 2.5–10 μg ml^–1; percent hRBC hemolysis ([22]; peptide 100 μg ml^–1): 73.1%; MIC [23]: 5 µg/mL (≈ 2.89 µM); MIC [24]: 10 µg/mL (≈ 5.78 µM); MIC [25]: 10 µg/mL (≈ 5.78 µM); MIC [26]: 10 µg/mL (≈ 5.78 µM); MIC [27]: 5 µg/mL (≈ 2.89 µM)
CC[C@H](C)[C@H](NC(=O)[C@H](CCCNC(=N)N)NC(=O)[C@H](CCCCN)NC(=O)[C@@H](NC(=O)[C@@H](N)Cc1ccccc1)[C@@H](C)CC)C(=O)N[C@@H](C)C(=O)N[C@@H](CCCNC(=N)N)C(=O)N[C@@H](CC(C)C)C(=O)N[C@@H](CC(C)C)C(=O)N[C@@H](CCCNC(=N)N)C(=O)N[C@@H](CCCCN)C(=O)N[C@H](C(=O)N[C@@H](Cc1ccccc1)C(N)=O)[C@@H](C)CC [BmKn2-7] (H-FIKRIARLLRKIF-NH2) | 10 µg/mL (≈ 5.98 µM) | 5 µg/mL (≈ 2.99 µM) | 5 µg/mL (≈ 2.99 µM) | 5 µg/mL (≈ 2.99 µM) | 5 µg/mL (≈ 2.99 µM) | 10 µg/mL (≈ 5.98 µM) | 5 µg/mL (≈ 2.99 µM) | 10 µg/mL (≈ 5.98 µM) | 20 µg/mL (≈ 12 µM) | 10 µg/mL (≈ 5.98 µM) | 5 µg/mL (≈ 2.99 µM) | 5 µg/mL (≈ 2.99 µM) | 5 µg/mL (≈ 2.99 µM) | 5 µg/mL (≈ 2.99 µM) | 5 µg/mL (≈ 2.99 µM) | 5 µg/mL (≈ 2.99 µM) | 5 µg/mL (≈ 2.99 µM) | 5 µg/mL (≈ 2.99 µM) | 2.5 µg/mL (≈ 1.49 µM) | 5 µg/mL (≈ 2.99 µM) | percent hRBC hemolysis ([22]; peptide 25 μg ml^–1): 6.9%; percent hRBC hemolysis ([22]; peptide 100 μg ml^–1): 41.0%; MIC [23]: 5 µg/mL (≈ 2.99 µM); MIC [24]: 20 µg/mL (≈ 12 µM); MIC [25]: 10 µg/mL (≈ 5.98 µM); MIC [26]: 10 µg/mL (≈ 5.98 µM); MIC [27]: 10 µg/mL (≈ 5.98 µM)
CC[C@H](C)[C@H](NC(=O)[C@H](C)NC(=O)CNC(=O)[C@@H](NC(=O)[C@@H](N)Cc1ccccc1)[C@@H](C)CC)C(=O)N[C@@H](C)C(=O)N[C@@H](CCCNC(=N)N)C(=O)N[C@@H](CC(C)C)C(=O)N[C@@H](CC(C)C)C(=O)N[C@@H](CO)C(=O)N[C@@H](CCCCN)C(=O)N[C@H](C(=O)N[C@@H](Cc1ccccc1)C(N)=O)[C@@H](C)CC [BmKn2] (H-FIGAIARLLSKIF-NH2) | >80 µg/mL | 5 µg/mL (≈ 3.45 µM) | 2.5 µg/mL (≈ 1.73 µM) | 5 µg/mL (≈ 3.45 µM) | 2.5 µg/mL (≈ 1.73 µM) | > 80 µg/mL | 10 µg/mL (≈ 6.91 µM) | >80 µg/mL | >80 µg/mL | >80 µg/mL | 5 µg/mL (≈ 3.45 µM) | 5 µg/mL (≈ 3.45 µM) | 10 µg/mL (≈ 6.91 µM) | 5 µg/mL (≈ 3.45 µM) | 10 µg/mL (≈ 6.91 µM) | 10 µg/mL (≈ 6.91 µM) | 10 µg/mL (≈ 6.91 µM) | 10 µg/mL (≈ 6.91 µM) | 10 µg/mL (≈ 6.91 µM) | 10 µg/mL (≈ 6.91 µM) | MIC against A. baumannii [28]: 5–10 μg ml^–1; percent hRBC hemolysis ([22]; peptide 25 μg ml^–1): 91.8%; MIC [23]: 10 µg/mL (≈ 6.91 µM); MIC [24]: >80 µg/mL; MIC [25]: >80 µg/mL; MIC [26]: >80 µg/mL; MIC [27]: >80 µg/mL
